Read-outs that look alike come from different tables or passages of the source.
What was measured:
E. coli mL308 225 = assay: In Vitro Anti-Bacterial Activity Assay (MIC), gram negative; assay type: cell-based; details: for MIC: Escherichia coli, ML308225, 18 h
S. aureus RN450 = assay: In Vitro Anti-Bacterial Activity Assay (MIC), gram positive; assay type: cell-based; details: for MIC: Staphylococcus aureus, RN450, 18 h
[1] = MIC class, Table 3, read-out: Antibiotic Activity Gram −
[2] = MIC class, Table 3, read-out: Antibiotic Activity Gram +
[3] = gram negative bacteria, read-out: Antibiotic Activity Gram − (MIC)
[4] = gram positive bacteria, read-out: Antibiotic Activity Gram + (MIC)
[5] = MIC class, Table 3 (Continued), read-out: Gram− activity
[6] = MIC class, Table 3 (Continued), read-out: Gram+ activity

## COC(=O)c1cc(NC(=O)c2ccno2)cc(-c2ccc(O)c3c2C[C@H]2C[C@H]4[C@H](N(C)C)C(O)=C(C(N)=O)C(=O)[C@@]4(O)C(O)=C2C3=O)c1 [IK]
E. coli mL308 225; [1]
  MIC: > 4 µg/mL
S. aureus RN450; [2]
  MIC: < 4 µg/mL

## CN(C)[C@@H]1C(O)=C(C(N)=O)C(=O)[C@@]2(O)C(O)=C3C(=O)c4c(O)ccc(-c5cc(F)cc(F)c5)c4C[C@H]3C[C@@H]12
E. coli mL308 225; [3]
  MIC: < 4 µg/mL
S. aureus RN450; [4]
  MIC: < 4 µg/mL

## CC(C)CNC(=O)Nc1ccc(-c2ccc(O)c3c2C[C@H]2C[C@H]4[C@H](N(C)C)C(O)=C(C(N)=O)C(=O)[C@@]4(O)C(O)=C2C3=O)cc1
E. coli mL308 225; [3]
  MIC: < 4 µg/mL
S. aureus RN450; [4]
  MIC: < 4 µg/mL

## CC(=O)Cc1cc(N(C)C)c2c(c1O)C(=O)C1=C(O)[C@]3(O)C(=O)C(C(N)=O)=C(O)[C@@H](N(C)C)[C@@H]3C[C@@H]1C2
E. coli mL308 225; [3]
  MIC: > 4 µg/mL
S. aureus RN450; [4]
  MIC: < 4 µg/mL

## Cc1ccc(O)c2c1C[C@H]1C[C@H]3[C@H](N(C)C)C(O)=C(C(N)=O)C(=O)[C@@]3(O)C(O)=C1C2=O
E. coli mL308 225; [3]
  MIC: < 4 µg/mL
S. aureus RN450; [4]
  MIC: < 4 µg/mL

## CN(C)[C@@H]1C(O)=C(C(N)=O)C(=O)[C@@]2(O)C(O)=C3C(=O)c4c(O)ccc(-c5ccc(Cl)o5)c4C[C@H]3C[C@@H]12
E. coli mL308 225; [5]
  MIC: < 4 µg/mL
S. aureus RN450; [6]
  MIC: < 4 µg/mL

## CC(=O)NCc1cc(N(C)C)c2c(c1O)C(=O)C1=C(O)[C@]3(O)C(=O)C(C(N)=O)=C(O)[C@@H](N(C)C)[C@@H]3C[C@@H]1C2
E. coli mL308 225; [3]
  MIC: > 4 µg/mL
S. aureus RN450; [4]
  MIC: < 4 µg/mL

## CC(=O)Cc1cc(I)c2c(c1O)C(=O)C1=C(O)[C@]3(O)C(=O)C(C(N)=O)=C(O)[C@@H](N(C)C)[C@@H]3C[C@@H]1C2
E. coli mL308 225; [3]
  MIC: > 4 µg/mL
S. aureus RN450; [4]
  MIC: > 4 µg/mL

## CN(C)CCN(C)Cc1ccc(-c2cc(N(C)C)c3c(c2O)C(=O)C2=C(O)[C@]4(O)C(=O)C(C(N)=O)=C(O)[C@@H](N(C)C)[C@@H]4C[C@@H]2C3)[nH]1
E. coli mL308 225; [3]
  MIC: > 4 µg/mL
S. aureus RN450; [4]
  MIC: > 4 µg/mL

## COc1ccc(CNCCc2ccccc2)cc1-c1ccc(O)c2c1C[C@H]1C[C@H]3[C@H](N(C)C)C(O)=C(C(N)=O)C(=O)[C@@]3(O)C(O)=C1C2=O
E. coli mL308 225; [3]
  MIC: < 4 µg/mL
S. aureus RN450; [4]
  MIC: < 4 µg/mL

## CN(C)c1cc(CNNCC(F)(F)F)c(O)c2c1C[C@H]1C[C@H]3[C@H](N(C)C)C(O)=C(C(N)=O)C(=O)[C@@]3(O)C(O)=C1C2=O
E. coli mL308 225; [3]
  MIC: > 4 µg/mL
S. aureus RN450; [4]
  MIC: < 4 µg/mL

## CSCc1cc(-c2ccccn2)c2c(c1O)C(=O)C1=C(O)[C@]3(O)C(=O)C(C(N)=O)=C(O)[C@@H](N(C)C)[C@@H]3C[C@@H]1C2
E. coli mL308 225; [3]
  MIC: > 4 µg/mL
S. aureus RN450; [4]
  MIC: < 4 µg/mL

## CN(C)[C@@H]1C(O)=C(C(N)=O)C(=O)[C@@]2(O)C(O)=C3C(=O)c4c(O)ccc(-c5ccoc5)c4C[C@H]3C[C@@H]12 [drawing 3429]
E. coli mL308 225; [3]
  MIC: < 4 µg/mL
S. aureus RN450; [4]
  MIC: < 4 µg/mL

## CN(C)c1cc(CNCC2CCNCC2)c(O)c2c1C[C@H]1C[C@H]3[C@H](N(C)C)C(O)=C(C(N)=O)C(=O)[C@@]3(O)C(O)=C1C2=O
E. coli mL308 225; [3]
  MIC: > 4 µg/mL
S. aureus RN450; [4]
  MIC: > 4 µg/mL

## CN(C)c1cc(CN(Cc2ccccc2)CC(F)(F)F)c(O)c2c1C[C@H]1C[C@H]3[C@H](N(C)C)C(O)=C(C(N)=O)C(=O)[C@@]3(O)C(O)=C1C2=O
E. coli mL308 225; [3]
  MIC: > 4 µg/mL
S. aureus RN450; [4]
  MIC: < 4 µg/mL

## COc1ccc(C#Cc2cc(C#Cc3ccc(OC)cc3)c3c(c2O)C(=O)C2=C(O)[C@]4(O)C(=O)C(C(N)=O)=C(O)[C@@H](N(C)C)[C@@H]4C[C@@H]2C3)cc1 [BS]
E. coli mL308 225; [1]
  MIC: > 4 µg/mL
S. aureus RN450; [2]
  MIC: > 4 µg/mL

## CCCN1CCC(Nc2ccc3c(c2O)C(=O)C2=C(O)[C@]4(O)C(=O)C(C(N)=O)=C(O)[C@@H](N(C)C)[C@@H]4[C@@H](O)[C@@H]2[C@H]3C)CC1 [KX]
E. coli mL308 225; [1]
  MIC: < 4 µg/mL
S. aureus RN450; [2]
  MIC: < 4 µg/mL

## CN(C)/C=N/c1ccc(O)c2c1C[C@H]1C[C@H]3[C@@H](N(C)C)C(O)=C(C(N)=O)C(=O)[C@@]3(O)C(O)=C1C2=O [QC]
E. coli mL308 225; [1]
  MIC: < 4 µg/mL
S. aureus RN450; [2]
  MIC: < 4 µg/mL

## CN(C)[C@@H]1C(O)=C(C(N)=O)C(=O)[C@@]2(O)C(O)=C3C(=O)c4c(O)ccc(-c5ccc(CNCC(F)(F)F)cc5)c4C[C@H]3C[C@@H]12 [drawing 3506]
E. coli mL308 225; gram negative bacteria
  Antibiotic Activity Gram − (MIC): ** (compounds with MIC less than or equal to 4 μg/ml are indicated with **)
S. aureus RN450; gram positive bacteria
  Antibiotic Activity Gram + (MIC): ** (compounds with MIC less than or equal to 4 μg/ml are indicated with **)

## CN(C)c1cc(NCC2CCCCC2)c(O)c2c1C[C@H]1C[C@H]3[C@H](N(C)C)C(O)=C(C(N)=O)C(=O)[C@@]3(O)C(O)=C1C2=O
E. coli mL308 225; [3]
  MIC: > 4 µg/mL
S. aureus RN450; [4]
  MIC: > 4 µg/mL

## CN(C)c1cc(CN2CCCCCC2)c(O)c2c1C[C@H]1C[C@H]3[C@H](N(C)C)C(O)=C(C(N)=O)C(=O)[C@@]3(O)C(O)=C1C2=O
E. coli mL308 225; [3]
  MIC: < 4 µg/mL
S. aureus RN450; [4]
  MIC: < 4 µg/mL

## CCc1cc(CNC(C)=O)c(O)c2c1C[C@H]1C[C@H]3C(N(C)C)C(O)=C(C(N)=O)C(=O)[C@@]3(O)C(O)=C1C2=O (some centres unmarked) [EM]
E. coli mL308 225; [1]
  MIC: > 4 µg/mL
S. aureus RN450; [2]
  MIC: < 4 µg/mL

## CN(C)c1cc(NC(=S)Nc2cccc3ccccc23)c(O)c2c1C[C@H]1C[C@H]3[C@H](N(C)C)C(O)=C(C(N)=O)C(=O)[C@@]3(O)C(O)=C1C2=O [CA]
E. coli mL308 225; [1]
  MIC: > 4 µg/mL
S. aureus RN450; [2]
  MIC: < 4 µg/mL

## CN(C)c1cc(CNc2nc(C(F)(F)F)co2)c(O)c2c1C[C@H]1C[C@H]3[C@H](N(C)C)C(O)=C(C(N)=O)C(=O)[C@@]3(O)C(O)=C1C2=O
E. coli mL308 225; [3]
  MIC: < 4 µg/mL
S. aureus RN450; [4]
  MIC: < 4 µg/mL

## CN(C)c1cc(CNCc2cc[n+]([O-])cc2)c(O)c2c1C[C@H]1C[C@H]3[C@H](N(C)C)C(O)=C(C(N)=O)C(=O)[C@@]3(O)C(O)=C1C2=O
E. coli mL308 225; [3]
  MIC: > 4 µg/mL
S. aureus RN450; [4]
  MIC: > 4 µg/mL

## CN(C)[C@@H]1C(O)=C(C(N)=O)C(=O)[C@@]2(O)C(O)=C3C(=O)c4c(O)ccc(-c5cccc([N+](=O)[O-])c5)c4C[C@H]3C[C@@H]12
E. coli mL308 225; [5]
  MIC: < 4 µg/mL
S. aureus RN450; [6]
  MIC: < 4 µg/mL

## C[C@H]1c2ccc(NC3CCN(C)CC3)c(O)c2C(=O)C2=C(O)[C@]3(O)C(=O)C(C(N)=O)=C(O)[C@@H](N(C)C)[C@@H]3[C@@H](O)[C@@H]21 [JF]
E. coli mL308 225; [1]
  MIC: < 4 µg/mL
S. aureus RN450; [2]
  MIC: < 4 µg/mL

## CN(C)c1cc(NCc2cccnc2)c(O)c2c1C[C@H]1C[C@H]3C(N(C)C)C(O)=C(C(N)=O)C(=O)[C@@]3(O)C(O)=C1C2=O (some centres unmarked) [FA]
E. coli mL308 225; [1]
  MIC: > 4 µg/mL
S. aureus RN450; [2]
  MIC: > 4 µg/mL

## C[C@H]1c2ccc(-c3ccc(C=O)cc3)c(O)c2C(=O)C2=C(O)[C@]3(O)C(=O)C(C(N)=O)=C(O)[C@@H](N(C)C)[C@@H]3[C@@H](O)[C@@H]21
E. coli mL308 225; [3]
  MIC: < 4 µg/mL
S. aureus RN450; [4]
  MIC: < 4 µg/mL

## CC(=O)OCC(=O)Nc1ccc(-c2ccc(O)c3c2C[C@H]2C[C@H]4[C@H](N(C)C)C(O)=C(C(N)=O)C(=O)[C@@]4(O)C(O)=C2C3=O)cc1
E. coli mL308 225; [3]
  MIC: > 4 µg/mL
S. aureus RN450; [4]
  MIC: < 4 µg/mL

## COc1ccc(C=O)cc1-c1ccc(O)c2c1C[C@H]1C[C@H]3[C@@H](N(C)C)C(O)=C(C(N)=O)C(=O)[C@@]3(O)C(O)=C1C2=O [GO]
E. coli mL308 225; [1]
  MIC: > 4 µg/mL
S. aureus RN450; [2]
  MIC: < 4 µg/mL

## CN(C)[C@H]1C(O)=C(C(N)=O)C(=O)[C@@]2(O)C(O)=C3C(=O)c4c(O)ccc(-c5ccc(CN6CCCC6)o5)c4C[C@H]3C[C@@H]12 [LM]
E. coli mL308 225; [1]
  MIC: < 4 µg/mL
S. aureus RN450; [2]
  MIC: < 4 µg/mL

## CCOC(=O)C(Cc1ccccc1)NCc1ccc(OC)c(-c2ccc(O)c3c2C[C@H]2C[C@H]4[C@H](N(C)C)C(O)=C(C(N)=O)C(=O)[C@@]4(O)C(O)=C2C3=O)c1 (some centres unmarked) [FZ]
E. coli mL308 225; [1]
  MIC: > 4 µg/mL
S. aureus RN450; [2]
  MIC: < 4 µg/mL

## CN(C)[C@@H]1C(O)=C(C(N)=O)C(=O)[C@@]2(O)C(O)=C3C(=O)c4c(O)ccc(-c5cccc(C=O)c5)c4C[C@H]3C[C@@H]12 [BF]
E. coli mL308 225; [1]
  MIC: < 4 µg/mL
S. aureus RN450; [2]
  MIC: < 4 µg/mL

## CN(C)c1ccc(O)c2c1C[C@H]1C[C@H]3[C@H](N(C)C)C(O)=C(C#N)C(=O)[C@@]3(O)C(O)=C1C2=O
E. coli mL308 225; [3]
  MIC: > 4 µg/mL
S. aureus RN450; [4]
  MIC: > 4 µg/mL

## C/C(=N\OC(C)(C)C)c1ccc(O)c2c1C[C@H]1C[C@H]3[C@H](N(C)C)C(O)=C(C(N)=O)C(=O)[C@@]3(O)C(O)=C1C2=O
E. coli mL308 225; [3]
  MIC: < 4 µg/mL
S. aureus RN450; [4]
  MIC: < 4 µg/mL

## COc1ccc(CNCCN(C)C)cc1-c1ccc(O)c2c1C[C@H]1C[C@H]3[C@H](N(C)C)C(O)=C(C(N)=O)C(=O)[C@@]3(O)C(O)=C1C2=O [GA]
E. coli mL308 225; [1]
  MIC: > 4 µg/mL
S. aureus RN450; [2]
  MIC: < 4 µg/mL

## CN(C)Cc1ccc(-c2ccc(O)c3c2C[C@H]2C[C@H]4C(N(C)C)C(O)=C(C(N)=O)C(=O)[C@@]4(O)C(O)=C2C3=O)cc1 (some centres unmarked)
E. coli mL308 225; [5]
  MIC: < 4 µg/mL
S. aureus RN450; [6]
  MIC: < 4 µg/mL

## CCc1ccc(-c2cc(N(C)C)c3c(c2O)C(=O)C2=C(O)[C@]4(O)C(=O)C(C(N)=O)=C(O)[C@@H](N(C)C)[C@@H]4C[C@@H]2C3)cc1 [EJ]
E. coli mL308 225; [1]
  MIC: > 4 µg/mL
S. aureus RN450; [2]
  MIC: < 4 µg/mL

## CN(C)CCNC(=O)c1ccc(-c2ccc(O)c3c2C[C@H]2C[C@H]4[C@H](N(C)C)C(O)=C(C(N)=O)C(=O)[C@@]4(O)C(O)=C2C3=O)cc1
E. coli mL308 225; [3]
  MIC: > 4 µg/mL
S. aureus RN450; [4]
  MIC: < 4 µg/mL

Reference: US20150141381A1, “TETRACYCLINE COMPOUNDS HAVING TARGET THERAPEUTIC ACTIVITIES” (Paratek Pharmaceuticals, Inc., priority 2001, published 2015)
